{"source": "patent US8575093B2", "about": "“Composition and method for treating Streptococcus pneumoniae infection” (priority 2006, dated 2013)", "key": {"[1]": {"target": "T1, rFBA (Streptococcus pneumoniae serotype 4, UniProt P0A4S1)", "T1 construct": "made in house; host or cells: E. coli BL21(DE3)pLysS", "assay": "Western blot like assay of FCRP binding to rFBA", "conditions": "rFBA on nitrocellulose probed with FCRP; FIG. 7C", "experimental": "Western blots: rFBA and FCRP were separated by 1D-SDS PAGE, transferred to nitrocellulose and probed with FCRP or rFBA, respectively. Rabbit anti-FCRP-KLH serum or rabbit anti rFBA was added respectively. In both cases, anti-rabbit IgG (Jackson ImmunoResearch, West Grove, Pa.) was used for final identification. In the control experiment preimmune serum was used as first antibody.\nTo determine more directly whether FCRP binds to rFBA, Western blot like assays were performed where rFBA is separated using 1D SDS-PAGE, transferred to a nitrocellulose membrane and probed with FCRP. Binding of FCRP was detected by incubating the membrane sequentially with rabbit anti-FCRP-KLH serum and anti-rabbit IgG. […] In the control (FIG. 7D) the first antibody was a pre-immune serum. In the converse experiment, when FCRP is separated on SDS-PAGE, a band of approximately 1.5 kDa corresponding to the molecular weight of FCRP is bound by rFBA (FIG. 7 E). In the control (FIG. 7F) the first antibody was a pre-immune serum."}, "[2]": {"tested_on": "Unencapsulated S. pneumoniae serotype 3 strain 3.8DW", "assay": "Inhibition of S. pneumoniae adhesion to A549 cells, strain 3.8DW", "type": "cell-based, Streptococcus pneumoniae", "experimental": "(§1) Inhibition of S. pneumoniae adhesion to A549 cells by addition of phages: A549 cells (type II epithelial lung carcinoma cells; ATCC, Rockville, Md., USA) were grown in DMEM medium supplemented with 10% foetal calf serum with penicillin and streptomycin (100 μg/ml each) at 37° C. in a humidified incubator. A549 cells (2.5×10^4/well) were cultured on fibronectin coated plates, to increase A549 cell adhesion to the wells and prevent their detachment during washings, in the absence of antibiotic for 24 hours at which time the cells reached confluence (5×10^4 cells/well on average). The plates were blocked with 1% gelatine for 1 hour and 10^6 CFU bacteria were added per well. The adhesion of S. pneumoniae to uncoated plates was negligible (<80 CFU/ml). The number of bacteria that adhered to fibronectin coated plates (8000±100 SD CFU/ml on average) was subtracted afterwards to determine the net number of bacteria that adhered to the A549 cells only. rFBA at the denoted concentrations (ranging from 5-30 μg/ml) was added to the cultured cells and incubated for an hour. Following extensive washings S. pneumoniae (10^6 CFU) were added for 1 hour incubation. To identify phages able to interfere in bacterial adhesion the bacteria were preincubated with the phages for 1 hour centrifuged and added to the cultured cells. […]"}, "[3]": {"tested_on": "S. pneumoniae unencapsulated serotype 2 strain R6", "assay": "Inhibition of S. pneumoniae adhesion to A549 cells, strain R6", "type": "cell-based, Streptococcus pneumoniae", "experimental": "as §1, with “incubation.” for “incubation. To identify phages able to interfere in bacterial adhesion the bacteria were preincubated with the phages for 1 hour centrifuged and added to the cultured cells.”\n(§2) The ability of FC derived synthetic peptide to interfere in S. pneumoniae adhesion to A459 cells was analyzed. […]"}, "[4]": {"tested_on": "S. pneumoniae serotype 3 strain WU2", "assay": "Intraperitoneal lethal dose systemic infection (sepsis) mouse model", "type": "in vivo, BALB/c mice", "source_text": "1) A lethal dose of S. pneumoniae serotype 3 strain WU2 (100 CFU) was used in this experiment. Bacteria were either untreated or treated ex-vivo for 1 hr with FCRP and used to inoculate intraperitoneally 7 weeks old BALB/c mice.\n2) A lethal dose of S. pneumoniae serotype 3 strain WU2 (100 CFU) was used in this experiment. Bacteria were co-administered intraperitonealy to 7 weeks old BALB/c mice in the presence and absence of FCRP. […] Furthermore, in mice infected in the absence of FCRP bacteria could be found in the spleens of 100% of the (FIG. 15B) mice.\n3) In a similar experiment, the mice were inoculated with bacteria in the presence and absence of FCRP and the mice were monitored for their survival."}, "[5]": {"tested_on": "S. pneumoniae serotype 3 strain WU2", "assay": "Intranasal inoculation mouse model: nasopharyngeal and lung colonization", "type": "in vivo, BALB/c mice", "conditions": "10^7 bacteria"}, "[6]": {"tested_on": "S. pneumoniae serotype 3 strain WU2", "assay": "Intranasal inoculation mouse model: nasopharyngeal and lung colonization", "type": "in vivo, BALB/c mice", "conditions": "for number of bacteria in the lungs: p<0.05", "experimental": "Inhibition of S. pneumoniae nasal and lung colonization with flamingo cadherin-related peptide: Seven weeks old BALB/c female mice (Harlan Laboratories, Israel) were housed in sterile conditions under 12 hour light/dark cycles and fed Purina Chow and tap water ad libitum. Animal experimental protocols were reviewed and approved by the Institutional Animal Care and Use Committee of the Ben-Gurion University of the Negev, Beer Sheva, Israel. For respiratory challenge with virulent S. pneumoniae mice were anaesthetized with Isoflurane (RxElite, Meridian, Id., USA) and inoculated intranasally (i.n.) with the denoted colony forming units (CFU) bacteria (in 25 μl PBS) prior and after treatment with the flamingo cadherin derived peptide at the denoted concentrations. […] The experiments were performed with groups of 4 mice at each treatment and each time point and the experiments were repeated on three different occasions.\nTo find whether FC peptide is capable of inhibiting S. pneumoniae colonization, mice were inoculated intranasally prior and after treatment with the FC-derived peptide at the denoted concentration. S. pneumoniae serotype 3, strain WU2 bacteria were treated with FC peptide, excess peptide was removed and the bacteria were inoculated intranasally. […] Using this size of inoculum, a natural clearance of bacteria from the lungs occurred 24 hours and 48 hours following inoculation.\nSeven week old BALB/c female mice were anaesthetized with Isoflurane (RxElite, Meridian, Id.) and inoculated intranasally with S. pneumoniae serotype 3 strain WU2 ([…], a highly virulent bacterial strain) after treatment with 40 μg synthetic Flamingo cadherin receptor derived peptide (FCRP) for 1 hr. […]"}, "[7]": {"tested_on": "S. pneumoniae encapsulated serotype 3 strain WU2", "assay": "Inhibition of S. pneumoniae adhesion to A549 cells, strain WU2", "type": "cell-based, Streptococcus pneumoniae", "experimental": "as §1"}, "[8]": {"tested_on": "S. pneumoniae encapsulated serotype 2 strain D39", "assay": "Inhibition of S. pneumoniae adhesion to A549 cells, strain D39", "type": "cell-based, Streptococcus pneumoniae", "conditions": "p<0.001", "experimental": "as §1, with “incubation.” for “incubation. To identify phages able to interfere in bacterial adhesion the bacteria were preincubated with the phages for 1 hour centrifuged and added to the cultured cells.”\nas §2"}}}
{"molecule": "H-Ala-Asp-Ser-Asp-Ser-Asp-Ser-Asp-Leu-Ser-Leu-Glu-Glu-Glu-Arg-OH (H-ADSDSDSDLSLEEER-OH; listed as Homo sapiens) [FCRP, 15 amino acid peptide from Flamingo-cadherin]", "values": [{"measurement": "binding of FCRP to rFBA", "setting": "[1]", "result": "a band of 33.5 kDa was shown to bind FCRP"}, {"measurement": "maximal adhesion inhibition", "setting": "[2]; 20 μg/well, FIG. 3B", "result": 41, "unit": "%"}, {"measurement": "inhibition of adhesion to A549", "setting": "[3]; 5 μg/well, p<0.001", "result": "significantly"}, {"measurement": "inhibition of adhesion to A549 cells", "setting": "[3]; 15 μg/well", "result": 75, "unit": "%"}, {"measurement": "survival rate", "setting": "[4]; 100 CFU i.p., bacteria treated ex-vivo 1 hr, FIG. 14, p<0.05", "result": "increased the survival rate of the mice significantly"}, {"measurement": "bacteria in the spleens", "setting": "[4]; 100 CFU i.p., co-administered, FIG. 15", "result": "no bacteria could be recovered from the spleens"}, {"measurement": "survival", "setting": "[4]; lethal dose i.p., co-administration, FIG. 16, p<0.001", "result": "significant increase in survival"}, {"measurement": "bacterial load (FIG. 13A)", "setting": "[5]; one post inoculation treatment, 3 and 48 hrs", "result": "reduced bacterial load significantly"}, {"measurement": "bacterial load in lungs (FIG. 13B)", "setting": "[5]; post inoculation treatment, 24 hour", "result": "clear reduction in bacterial load"}, {"measurement": "bacterial colonization", "setting": "[6]; 5×10^6 bacteria, 40 μg ex vivo, FIG. 11A", "result": "significant inhibition of bacterial colonization"}, {"measurement": "aspiration to the lung", "setting": "[6]; 5×10^6 bacteria, 40 μg ex vivo, FIG. 11B", "result": "reduced aspiration to the lung"}, {"measurement": "pneumonia development", "setting": "[6]; 5×10^6 bacteria, 40 μg ex vivo, FIG. 11C", "result": "reduced pneumonia development"}, {"measurement": "nasopharyngeal colonization", "setting": "[6]; 10^6 bacteria treated ex vivo 1 hr with 40 μg, 3, 24, 48 hours, FIG. 9A", "result": "inhibited nasopharyngeal colonization significantly"}, {"measurement": "aspiration to the lungs", "setting": "[6]; 10^6 bacteria treated ex vivo 1 hr with 40 μg, FIG. 9B", "result": "significant inhibition of aspiration to the lungs"}, {"measurement": "bacterial load (FIG. 13A)", "setting": "[6]; 10^7 bacteria, pre-treatment, 3 and 48 hrs", "result": "reduced bacterial load significantly"}, {"measurement": "bacterial load in lungs (FIG. 13B)", "setting": "[6]; 10^7 bacteria, pre-treatment, 24 hour", "result": "clear reduction in bacterial load"}, {"measurement": "number of bacteria in the lungs", "setting": "[6]; co-administered, 4 hours after inoculation", "result": "reduced significantly"}, {"measurement": "colonization in the nasopharynx", "setting": "[6]; inoculum 5×10^5, 20 μg/ml, 3, 6, 24 and 48 hours, FIG. 4A", "result": "inhibited colonization in the nasopharynx significantly"}, {"measurement": "colonization of the nasopharynx", "setting": "[6]; inoculum 5×10^5, 40 μg/ml, all time points, FIG. 4A", "result": "prevented S. pneumoniae colonization of the nasopharynx at all time points tested"}, {"measurement": "colonization of the lung", "setting": "[6]; inoculum 5×10^5, 20 or 40 μg/ml, 3 and 6 hours, FIG. 4B", "result": "inhibited significantly colonization of the lung"}, {"measurement": "colonization in the nasopharynx", "setting": "[6]; inoculum 10^6, 20 μg/ml, 3, 6, 24 and 48 hours, FIG. 4C", "result": "inhibited colonization in the nasopharynx significantly"}, {"measurement": "colonization of the lung", "setting": "[6]; inoculum 10^6, 40 μg/ml, 3, 6 and 24 hours, FIG. 4D", "result": "significantly inhibited colonization of the lung"}, {"measurement": "colonization of the nasopharynx", "setting": "[6]; inoculum 10^6, 40 μg/ml, FIG. 4C", "result": "significantly higher ability to inhibit S. pneumoniae colonization of the nasopharynx"}, {"measurement": "bacteria in the lungs", "setting": "[6]; inoculum 10^6, 20 or 40 μg/ml, 48 hours, FIG. 4D", "result": "no bacteria could be detected in the lungs"}, {"measurement": "bacteria in the lungs", "setting": "[6]; new peptide preparation, 48 hr following inoculation, FIG. 10C", "result": "no bacteria could be found in the lungs"}, {"measurement": "nasopharyngeal colonization", "setting": "[6]; new peptide preparation, pneumonia-causing batch, 10^6 bacteria, FIG. 10A", "result": "prevented completely"}, {"measurement": "aspiration of the bacteria to the lungs", "setting": "[6]; new peptide preparation, pneumonia-causing batch, 10^6 bacteria, FIG. 10B", "result": "prevented completely"}, {"measurement": "number of bacteria in the lungs", "setting": "[6]; peptide 1 hr after inoculation, 3 hours after peptide", "result": "reduced significantly"}, {"measurement": "maximal inhibition of adhesion to A549 cells", "setting": "[7]; 15 μg/well, FIG. 3A", "result": 80, "unit": "%"}, {"measurement": "inhibition of adhesion to A549", "setting": "[8]; 5 μg/well", "result": "significantly"}, {"measurement": "inhibition of adhesion to A549 cells", "setting": "[8]; 20 μg/well", "result": 90, "unit": "%"}]}
{"molecule": "rFBA: Recombinant Fructose Bisphosphate Aldolase (FBA; SP0605 Streptococcus pneumoniae TIGR4), 33.5 kDa FBA-HAT fusion protein (protein, left off: small tags and cut ends, Recombinant Fructose Bisphosphate Aldolase (FBA; SP0605 Streptococcus pneumoniae TIGR4), 33.5 kDa FBA-HAT fusion protein) MAIVSAEKFVQAARDNGYAVGGFNTNNLEWTQAILRAAEAKKAPVLIQTSMGAAKYMGGYKVARNLIANLVESMGITVPVAIHLDHGHYEDALECIEVGYTSIMFDGSHLPVEENLKLAKEVVEKAHAKGISVEAEVGTIGGEEDGIIGKGELAPIEDAKAMVETGIDFLAAGIGNIHGPYPVNWEGLDLDHLQKLTEALPGFPIVLHGGSGIPDEQIQAAIKLGVAKVNVNTECQIAFANATRKFARDYEANEAEYDKKKLFDPRKFLADGVKAIQASVEERIDVFGSEGKA", "values": [{"measurement": "inhibition of adhesion to A549 cells", "setting": "[2]; 12 μg/well, protein added to cells, FIG. 5B", "result": 92, "unit": "%"}, {"measurement": "inhibition of adhesion to A549 cells", "setting": "[7]; 0.5 μg/well, protein added to cells, FIG. 5A", "result": 63, "unit": "%"}]}
